Measurements: patent US10870678B2, “Chiral peptides” (ARCUATE THERAPEUTICS, INC., priority 2016, dated 2020)
Like-named read-outs stand apart in the source and are kept apart here.

Test system: HepG2 human liver cancer cell line
Experiment: Functional Mitochondrial Toxicity Assay, XFe96 Seahorse (HepG2)
Assay type: cell-based
Experimental: The present Examples interrogate the two major energy producing pathways in the cell, mitochondrial respiration and glycolysis. HepG2 human liver cancer cell lines were dosed with test compounds and in real time the extracellular oxygen levels and pH were measured using the XFe96 flux analyser (Seahorse Biosciences). XFe Technology uses solid-state sensors to simultaneously measure both oxygen consumption rate (OCR) and extracellular acidification rate (ECAR) to determine effects on oxidative phosphorylation (OXPHOS) and glycolysis simultaneously. The cells were then subjected to sequential exposure to various inhibitors of mitochondrial functional to assess cellular metabolism.
A positive mitochondrial active compound is determined when there is a change in OCR or ECAR in the absence of cytotoxicity. Cytotoxicity was determined when both oxidative phosphorylation (OCR) and glycolysis (ECAR) were inhibited.
OCR is a measurement of oxygen content in extracellular media. Changes in OCR indicate effects on mitochondrial function, and can be bi-directional. A decrease is due to an inhibition of mitochondrial respiration, whilst an increase may indicate an uncoupler, in which respiration is not linked to energy production.
ECAR is the measurement of extracellular proton concentration (pH). An increase in signal means an increase in rate in number of pH ions (Thus decreasing pH value), and seen as an increase in glycolysis. Expressed as a fraction of basal control (rate prior to addition of compound).
Reverse capacity is the measured ability of cells to respond to an increase in energy demand, a reduction indicates mitochondrial dysfunction.
The Mitochondrial Stress Test is a series of sequential additions of compounds to the cells to assess a bioenergetics profile, and effects of test compounds on parameters such as proton leak and research capacity. This was used to assist in understanding potential mechanisms of mitochondrial toxicity. For example, it involves the addition of the follow compounds in this order:
Oligomycin is a known inhibitor of ATP synthase, and prevents the formation of ATP. This provides a measurement of the amount of oxygen consumption related to ATP production and ATP turnover. The addition of Oligomycin results in a decrease in OCR under normal conditions, and residual OCR is related to the natural proton leak.
Carbonyl cyanide 4-(trifluoromethoxy)phenylhydrazine (FCCP) is a protonphore, and is a known uncoupler of oxygen consumption from ATP production. This allows the maximum achievable transfer of electrons and oxygen consumption rate, and provides a measurement of reserve capacity.
Rotenone and antimycin A are known inhibitors of complex I and III of the electron transport chain, respectively. This inhibits electron transport completely, and any residual oxygen consumption is due to non-mitochondrial activity via oxygen requiring enzymes.

[1] = HepG2, read-out: Reserve Capacity AC50

Molecule	Potential Mechanism (HepG2)	Reserve Capacity MEC (HepG2)	Reserve Capacity ↑↓ (HepG2)	AC50 (HepG2, read-out: ECAR AC50)	AC50 (HepG2, read-out: OCR AC50)	AC50 [1]	further results
(L-Phe)(L-Lys)(L-Phe)(D-Arg)-NH2 [Peptide I-29]	Other	0.203 µM	↓	> 100 µM	> 100 µM	4.17 µM	
(D-Lys)(L-Leu)(L-Orn)(L-Leu)-NH2 [Peptide I-25]	No effect			> 100 µM	> 100 µM	> 100 µM	
(D-Orn)((L-Dmt)(L-Orn)(L-Phe)-NH2 [Peptide I-4]	No effect			> 100 µM	> 100 µM	> 100 µM	
(D-Arg)(L-Leu)(L-Lys)(L-Phe)-NH2 [Peptide I-21]	Other	62.5 µM	↑	> 100 µM	> 100 µM	> 100 µM	
(D-Leu)(D-Orn)(D-Leu)(L-Orn)-NH2 [Peptide I-37]	Other	<0.1 µM	↓	> 100 µM	> 100 µM	1.11 µM	OCR MEC (HepG2): 143 µM; OCR ↑↓ (HepG2): ↓
(L-Leu)(L-Orn)(L-Leu)(D-Orn)-NH2 [Peptide I-32]	Other	0.277 µM	↓	> 100 µM	> 100 µM	9.32 µM	
(D-Lys)(L-Dmt)(L-Lys)(L-Phe)-NH2 [Peptide I-6]	Other	50.3 µM	↑	> 100 µM	> 100 µM	> 100 µM	
(D-Phe)(D-Orn)(D-Phe)(L-Orn)-NH2 [Peptide I-38]	No effect			> 100 µM	> 100 µM	> 100 µM	
(D-Arg)(L-Dmt)(L-Orn)(L-Tyr)-NH2 [Peptide I-10]	No effect			> 100 µM	> 100 µM	> 100 µM	
(D-Arg)(L-Leu)(L-Orn)(L-Phe)-NH2 [Peptide I-23]	Other	65.9 µM	↑	> 100 µM	> 100 µM	> 100 µM	
(L-Phe)(L-Orn)(L-Phe)(D-Orn)-NH2 [Peptide I-33]	No effect			> 100 µM	> 100 µM	> 100 µM	
(L-Phe)(L-Orn)(L-Tyr)(D-Orn)-NH2 [Peptide I-15]	Other	64.7 µM	↑	> 100 µM	> 100 µM	> 100 µM	
(D-Phe)(D-Orn)(D-Leu)(L-Orn)-NH2 [Peptide I-36]	Other	0.139 µM	↓	> 100 µM	> 100 µM	6.45 µM	
(L-Phe)(L-Orn)(L-Dmt)(D-Arg)-NH2 [Peptide I-12]	No effect			> 100 µM	> 100 µM	> 100 µM	
(L-Phe)(L-Orn)(L-Leu)(D-Orn)-NH2 [Peptide I-31]	No effect			> 100 µM	> 100 µM	> 100 µM	
(D-Phe)(D-Lys)(D-Leu)(L-Arg)-NH2 [Peptide I-34]	Other	<0.1 µM	↓	> 100 µM	> 100 µM	0.957 µM	
(L-Phe)(L-Orn)(L-Dmt)(D-Orn)-NH2 [Peptide I-13]	Other			> 100 µM	> 100 µM		Reserve Capacity MEC (HepG2, listed as I-13 (1)): 13.4 µM; Reserve Capacity ↑↓ (HepG2, listed as I-13 (1)): ↑; AC50 (HepG2, listed as I-13 (1), read-out: Reserve Capacity AC50): 81.9 µM; Reserve Capacity MEC (HepG2, listed as I-13 (2)): 0.167 µM; Reserve Capacity ↑↓ (HepG2, listed as I-13 (2)): ↓; AC50 (HepG2, listed as I-13 (2), read-out: Reserve Capacity AC50): 4.72 µM

Molecule	Potential Mechanism (HepG2)	Reserve Capacity MEC (HepG2)	Reserve Capacity ↑↓ (HepG2)	AC50 (HepG2, read-out: ECAR AC50)	AC50 (HepG2, read-out: OCR AC50)	AC50 [1]	further results
(D-Orn)(L-Tyr)(L-Orn)(L-Phe)-NH2 [Peptide I-5]	Other			> 100 µM	> 100 µM		Reserve Capacity MEC (HepG2, listed as I-5 (1)): 15.8 µM; Reserve Capacity ↑↓ (HepG2, listed as I-5 (1)): ↑; AC50 (HepG2, listed as I-5 (1), read-out: Reserve Capacity AC50): > 100 µM; Reserve Capacity MEC (HepG2, listed as I-5 (2)): <0.1 µM; Reserve Capacity ↑↓ (HepG2, listed as I-5 (2)): ↓; AC50 (HepG2, listed as I-5 (2), read-out: Reserve Capacity AC50): 0.954 µM
(L-Phe)(L-Orn)(L-Leu)(D-Arg)-NH2 [Peptide I-30]	No effect			> 100 µM	> 100 µM	> 100 µM	
(L-Phe)(L-Orn)(L-Tyr)(D-Arg)-NH2 [Peptide I-14]	No effect			> 100 µM	> 100 µM	> 100 µM	
(L-Phe)(L-Lys)(L-Leu)(D-Arg)-NH2 [Peptide I-28]	Other	<0.1 µM	↓	> 100 µM	> 100 µM	1.28 µM	
(D-Orn)(L-Phe)(L-Orn)(L-Phe)-NH2 [Peptide I-27]	No effect			> 100 µM	> 100 µM	> 100 µM	
(D-Orn)(L-Leu)(L-Orn)(L-Leu)-NH2 [Peptide I-26]	No effect			> 100 µM	> 100 µM	> 100 µM	
(D-Arg)(L-Tyr)(L-Orn)(L-Phe)-NH2 [Peptide I-3]	Other		↑	> 100 µM	> 100 µM	> 100 µM	Reserve Capacity MEC (HepG2, listed as I-3 (1)): 48.5 µM; Reserve Capacity MEC (HepG2, listed as I-3 (2)): 85.3 µM
C=C(C)[C@H]1Cc2c(ccc3c2O[C@@H]2COc4cc(OC)c(OC)cc4[C@@H]2C3=O)O1 [Rotenone, reference compound]	ETC	<0.003 µM	↓				ECAR MEC (HepG2): 0.00325 µM; ECAR ↑↓ (HepG2): ↑; OCR MEC (HepG2): <0.003 µM; OCR ↑↓ (HepG2): ↓; AC50 (Homo sapiens, HepG2, read-out: ECAR AC50): 0.496 µM; AC50 (Homo sapiens, HepG2, read-out: OCR AC50): 0.0138 µM; AC50 (Homo sapiens, HepG2, read-out: Reserve Capacity AC50): 0.00349 µM
(D-Phe)(D-Orn)(D-Leu)(L-Arg)-NH2 [Peptide I-35]	Other	<0.1 µM	↓	> 100 µM	> 100 µM	5.28 µM	
(D-Phe)(D-Orn)(D-Tyr)(L-Arg)-NH2 [Peptide I-16]	Other	84.5 µM	↑	> 100 µM	> 100 µM	> 100 µM	
(D-Arg)(L-Phe)(L-Lys)(L-Phe)-NH2 [Peptide I-22]	No effect	100 µM	↑	> 100 µM	> 100 µM	> 100 µM	
(D-Lys)(L-Tyr)(L-Orn)(L-Phe)-NH2 [Peptide I-8]	Other	79.7 µM	↑	> 100 µM	> 100 µM	> 100 µM	
(D-Arg)(L-Leu)(L-Orn)(L-Leu)-NH2 [Peptide I-24]	Other	33.8 µM	↑	> 100 µM	> 100 µM	> 100 µM	
(D-Lys)(L-Dmt)(L-Orn)(L-Phe)-NH2 [Peptide I-7]	No effect			> 100 µM	> 100 µM	> 100 µM	
(D-Arg)(L-Dmt)(L-Orn)(L-Phe)-NH2 [Peptide I-2]	No effect			> 100 µM	> 100 µM	> 100 µM	
(D-Arg)(L-Dmt)(L-Lys)(L-Tyr)-NH2 [Peptide I-9]	No effect			> 100 µM	> 100 µM	> 100 µM	
